One may read the EC50 as the concentration that produces a half-maximal response. A low value points to higher potency in that assay.

The source of these data is patent US12319676B2, “Substituted amide compounds useful as farnesoid X receptor modulators” (BRISTOL-MYERS SQUIBB COMPANY, priority 2019, dated 2025).

SMILES strings stand for the structures.

This assay addresses T1, human FXR (Homo sapiens, UniProt Q96RI1).
T1 construct: expressed in transfected cells; host or cells: HEK293 cells stably carrying a 5xGal4 response element-luciferase reporter, transiently transfected with pcDNA3.1-Gal4-FXR
T1 sequence (Q96RI1 262-486 limits assumed): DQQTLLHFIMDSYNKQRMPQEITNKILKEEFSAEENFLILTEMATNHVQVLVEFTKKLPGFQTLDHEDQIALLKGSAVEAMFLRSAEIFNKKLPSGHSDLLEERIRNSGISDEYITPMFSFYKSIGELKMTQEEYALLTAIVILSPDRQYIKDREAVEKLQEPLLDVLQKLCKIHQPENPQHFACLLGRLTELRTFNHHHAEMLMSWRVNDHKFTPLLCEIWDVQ
Description: transient human FXR/Gal4-luciferase reporter assay. Type of assay: cell-based. The conditions noted are these: Gal4-hFXR fusion construct, luciferase reporter in HEK293 cells; overnight incubation; response as percentage of 8 μM GW-4064 control. In outline:
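HEK293 cells stably carrying a 5×Gal4-response-element firefly luciferase reporter were transiently transfected with a Gal4 DBD-human FXR LBD fusion, then treated overnight with compounds at 37 °C. Steady-Glo luminescence, minus DMSO background, was expressed as percent of the response to 8 μM GW-4064.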

Take `COc1cccc(N(CC23CCC(c4nc(C5CC5)no4)(CC2)CC3)C(=O)C2CC(F)(F)C2)c1` [Example 59, N-((4-(3-cyclopropyl-1,2,4-oxadiazol-5-yl)bicyclo[2.2.2]octan-1-yl)methyl)-3,3-difluoro-N-(3-methoxyphenyl)cyclobutane-1-carboxamide]: the EC50 turned out to be 673 nM.
In the case of `COc1cccc(N(CC23CCC(c4nc(C5CC5)no4)(CC2)CC3)C(=O)C2CCOCC2)c1` [Example 60, N-((4-(3-cyclopropyl-1,2,4-oxadiazol-5-yl)bicyclo[2.2.2]octan-1-yl)methyl)-N-(3-methoxyphenyl)tetrahydro-2H-pyran-4-carboxamide], the 50% effective concentration (EC50) worked out at 902 nM.
For the molecule `COc1cccc(N(CC23CCC(c4nc(C5CC5)no4)(CC2)CC3)C(=O)C2CCS(=O)(=O)CC2)c1` [Example 61, N-((4-(3-cyclopropyl-1,2,4-oxadiazol-5-yl)bicyclo[2.2.2]octan-1-yl)methyl)-N-(3-methoxyphenyl)tetrahydro-2H-thiopyran-4-carboxamide 1,1-dioxide], it took 4000 nM to reach a half-maximal effect (EC50).
In turn, `N#Cc1cc(F)cc(N(CC23CCC(c4nc(C5CC5)no4)(CC2)CC3)C(=O)C23CC(F)(C2)C3)c1` [Example 62, N-(3-cyano-5-fluorophenyl)-N-((4-(3-cyclopropyl-1,2,4-oxadiazol-5-yl)bicyclo[2.2.2]octan-1-yl)methyl)-3-fluorobicyclo[1.1.1]pentane-1-carboxamide] gave a half-maximal effective concentration (EC50) of 185 nM.
`N#Cc1cc(F)cc(N(CC23CCC(c4nc(C5CC5)no4)(CC2)CC3)C(=O)[C@H]2C[C@](O)(C(F)(F)F)C2)c1` [Example 63, (1S,3S)-N-(3-cyano-5-fluorophenyl)-N-((4-(3-cyclopropyl 1,2,4-oxadiazol-5-yl)bicyclo[2.2.2]octan-1-yl)methyl)-3-hydroxy-3-(trifluoromethyl)cyclobutane-1-carboxamide] yielded a 50% effective concentration (EC50) of 1050 nM.
In the case of `N#Cc1cc(F)cc(N(CC23CCC(c4nc(C5CC5)no4)(CC2)CC3)C(=O)C2CC(F)(F)C2)c1` [Example 64, N-(3-cyano-5-fluorophenyl)-N-((4-(3-cyclopropyl-1,2,4-oxadiazol-5-yl)bicyclo[2.2.2]octan-1-yl)methyl)-3,3-difluorocyclobutane-1-carboxamide] it was 528 nM.
Molecule `CS(=O)(=O)Nc1cccc(N(CC23CCC(c4nc(C5CC5)no4)(CC2)CC3)C(=O)C2CC(F)(F)C2)c1` [Example 65, N-((4-(3-cyclopropyl-1,2,4-oxadiazol-5-yl)bicyclo[2.2.2]octan-1-yl)methyl)-3,3-difluoro-N-(3-(methylsulfonamido)phenyl)cyclobutane-1-carboxamide] showed a concentration giving a half-maximal response (EC50) of 1280 nM.
On to `CS(=O)(=O)Nc1cccc(N(CC23CCC(c4nc(C5CC5)no4)(CC2)CC3)C(=O)C23CC(F)(C2)C3)c1` [Example 66, N-((4-(3-cyclopropyl-1,2,4-oxadiazol-5-yl)bicyclo[2.2.2]octan-1-yl)methyl)-3-fluoro-N-(3-(methylsulfonamido)phenyl)bicyclo[1.1.1]pentane-1-carboxamide], for which the half-maximal effective concentration (EC50) was determined as 4000 nM.
Turning to `CS(=O)(=O)Nc1cccc(N(CC23CCC(c4nc(C5CC5)no4)(CC2)CC3)C(=O)[C@H]2C[C@](O)(C(F)(F)F)C2)c1` [Example 67, (1S,3S)-N-((4-(3-cyclopropyl-1,2,4-oxadiazol-5-yl)bicyclo[2.2.2]octan-1-yl)methyl)-3-hydroxy-N-(3-(methylsulfonamido)phenyl)-3-(trifluoromethyl)cyclobutane-1-carboxamide], a half-maximal effect (EC50) was put at 4000 nM.
In the case of `CS(=O)(=O)c1cccc(N(CC23CCC(c4nc(C5CC5)no4)(CC2)CC3)C(=O)C23CC(F)(C2)C3)c1` [Example 68, N-((4-(3-cyclopropyl-1,2,4-oxadiazol-5-yl)bicyclo[2.2.2]octan-1-yl)methyl)-3-fluoro-N-(3-(methylsulfonyl)phenyl)bicyclo[1.1.1]pentane-1-carboxamide] it was 1490 nM; in that of `CS(=O)(=O)c1cccc(N(CC23CCC(c4nc(C5CC5)no4)(CC2)CC3)C(=O)C2CCC(F)(F)CC2)c1` [Example 69, N-((4-(3-cyclopropyl-1,2,4-oxadiazol-5-yl)bicyclo[2.2.2]octan-1-yl)methyl)-4,4-difluoro-N-(3-(methylsulfonyl)phenyl)cyclohexane-1-carboxamide], 4000 nM; in that of `CC(N(C(=O)C12CC(F)(C1)C2)c1cccc(C#N)c1)C12CCC(c3nc(C4CC4)no3)(CC1)CC2` (stereo not drawn) [Example 70, N-(3-cyanophenyl)-N-(1-(4-(3-cyclopropyl-1,2,4-oxadiazol-5-yl)bicyclo[2.2.2]octan-1-yl)ethyl)-3-fluorobicyclo[1.1.1]pentane-1-carboxamide], 2000 nM.
For `Cn1nc(C2CC2)cc1C12CCC(CN(C(=O)C34CC(F)(C3)C4)c3cccc(C#N)c3)(CC1)CC2` [Example 72, N-(3-cyanophenyl)-N-((4-(3-cyclopropyl-1-methyl-1H-pyrazol-5-yl)bicyclo[2.2.2]octan-1-yl)methyl)-3-fluorobicyclo[1.1.1]pentane-1-carboxamide], the EC50 came out at 993 nM.
Molecule `Cn1nc(C2CC2)cc1C12CCC(CN(C(=O)C3CCC(F)(F)CC3)c3cccc(C#N)c3)(CC1)CC2` [Example 73, N-(3-cyanophenyl)-N-((4-(3-cyclopropyl-1-methyl-1H-pyrazol-5-yl)bicyclo[2.2.2]octan-1-yl)methyl)-4,4-difluorocyclohexane-1-carboxamide] came in with an EC50 of 2130 nM.
Then `Cn1nc(C2CC2)cc1C12CCC(CN(c3cccc(C#N)c3)C(=O)[C@H]3C[C@@](C)(O)C3)(CC1)CC2` [Example 74, (1S,3S)-N-(3-cyanophenyl)-N-((4-(3-cyclopropyl-1-methyl-1H-pyrazol-5-yl)bicyclo[2.2.2]octan-1-yl)methyl)-3-hydroxy-3-methylcyclobutane-1-carboxamide], with 1350 nM.
In turn, `Cn1nc(C2CC2)cc1C12CCC(CN(c3cccc(C#N)c3)C(=O)[C@H]3C[C@](O)(C(F)(F)F)C3)(CC1)CC2` [Example 75, (1S,3S)-N-(3-cyanophenyl)-N-((4-(3-cyclopropyl-1-methyl-1H-pyrazol-5-yl)bicyclo[2.2.2]octan-1-yl)methyl)-3-hydroxy-3-(trifluoromethyl)cyclobutane-1-carboxamide] registered a concentration for a half-maximal effect (EC50) of 1380 nM.
In the case of `Cn1nc(C2CC2)cc1C12CCC(CN(c3cccc(S(C)(=O)=O)c3)C(=O)[C@H]3C[C@](O)(C(F)(F)F)C3)(CC1)CC2` [Example 76, (1S,3S)—N-((4-(3-cyclopropyl-1-methyl-1H-pyrazol-5-yl)bicyclo[2.2.2]octan-1-yl)methyl)-3-hydroxy-N-(3-(methylsulfonyl)phenyl)-3-(trifluoromethyl)cyclobutane-1-carboxamide] it was 4000 nM; in that of `Cn1nc(C2CC2)cc1C12CCC(CN(C(=O)C3CCC(F)(F)CC3)c3cccc(S(C)(=O)=O)c3)(CC1)CC2` [Example 77, N-((4-(3-cyclopropyl-1-methyl-1H-pyrazol-5-yl)bicyclo[2.2.2]octan-1-yl)methyl)-4,4-difluoro-N-(3-(methylsulfonyl)phenyl) cyclohexane-1-carboxamide], 4000 nM; in that of `Cn1nc(C2CC2)cc1C12CCC(CN(C(=O)C34CC(F)(C3)C4)c3cccc(S(C)(=O)=O)c3)(CC1)CC2` [Example 78, N-((4-(3-cyclopropyl-1-methyl-1H-pyrazol-5-yl)bicyclo[2.2.2]octan-1-yl)methyl)-3-fluoro-N-(3-(methylsulfonyl)phenyl)bicyclo[1.1.1]pentane-1-carboxamide], 4000 nM.
Then `COC(=O)COc1cccc(N(CC23CCC(c4ccc(N(C)C)c(Cl)c4)(CC2)CC3)C(=O)C2CCCCC2)c1` [Example 79, Methyl 2-(3-(N-((4-(3-chloro-4-(dimethylamino)phenyl)bicyclo[2.2.2]octan-1-yl)methyl)cyclohexanecarboxamido)phenoxy) acetate], with 1040 nM.
Molecule `COC(=O)COc1cccc(N(CC23CCC(c4ccc(N(C)C)cc4)(CC2)CC3)C(=O)C2CCCCC2)c1` [Example 80, Methyl 2-(3-(N-((4-(4-(dimethylamino)phenyl)bicyclo[2.2.2]octan-1-yl)methyl)cyclohexanecarboxamido)phenoxy) acetate] registered a concentration giving a half-maximal response (EC50) of 1600 nM.
Take `COC(=O)COc1cccc(N(CC23CCC(c4ccc5c(cnn5C)c4)(CC2)OC3)C(=O)C2CCOCC2)c1` [Example 81, Methyl 2-(3-(N-((1-(1-methyl-1H-indazol-5-yl)-2-oxabicyclo[2.2.2]octan-4-yl)methyl)tetrahydro-2H-pyran-4-carboxamido)phenoxy) acetate]: the EC50 was 4360 nM.
Then `Cc1noc(C23CCC(CN(C(=O)C4CCCCC4)c4cccc(C(=O)Nc5nccs5)c4)(CC2)CC3)n1` [Example 82, 3-(N-((4-(3-methyl-1,2,4-oxadiazol-5-yl)bicyclo[2.2.2]octan-1-yl)methyl)cyclohexanecarboxamido)-N-(thiazol-2-yl)benzamide], with 3010 nM; and `CCOc1ccc(Nc2cccc(N(CC34CCC(c5nc(C(C)(C)C)no5)(CC3)CC4)C(=O)C34CC(F)(C3)C4)c2)cc1` [Example 83, N-((4-(3-(tert-butyl)-1,2,4-oxadiazol-5-yl)bicyclo[2.2.2]octan-1-yl)methyl)-N-(3-((4-ethoxyphenyl)amino)phenyl)-3-fluorobicyclo[1.1.1]pentane-1-carboxamide], with 1130 nM.
